Results from patent US5981470A, “Uterine fibroid treatment” (The University of Birmingham, priority 1994, dated 1999).

Experiments:
myometrial cells [1] = test: [3H]-thymidine incorporation into DNA (DNA synthesis); assay type: cell-based, human; details: FIG. 4; Captopril 0.1 and 1.0 mM; 48 h; serum-free medium
Experimental: Myometrial cells prepared as described previously were resuspended in culture medium containing DMEM supplemented with 10% (v/v) FCS, 10 mM L-glutamine, 20 mM hepes, 100 U/mi penicillin and 100/μg/ml streptomycin in 24 well plates at a density of approximately 250×10^3 cells per well and maintained at 37° C. in a humidified atmosphere of air/CO2 (19:1).
DNA synthesis was assayed by measuring [^3 H]-thymidine incorporation into DNA. Subconfluent myometrial cells were made quiescent by incubation with serum-free medium for 48 h, the medium being replaced with serum-free medium containing 0.2% (w/v) bovine serum albumin (BSA) and [^3 H]-thymidine (0.2 μCi/well). The cells were further incubated for 48 h in the presence of angiotensin-converting enzyme (ACE) inhibitor (0.1 and 1.0 mM Captopril, hatched and solid columns respectively) or angiotensin II (100 nM AgII, crossed column). The medium was then removed and the cells incubated with 10% cold trichloroacetic acid TCA) at 4° C. for 15 min. TCA-precipitated material was redissolved in 0.2 M NaOH and the radioactivity determined by liquid scintillation counting in a β-scintillation analyser. Positive and negative controls for proliferation were established by incubating cells with 10% fetal calf serum (square column) and by growth in the absence of the agonist in serum-free medium (open column).

[2] = tested on: angiotensin II-induced myometrial cell proliferation; test: Inhibition of angiotensin II-induced myometrial cell proliferation, Coulter counter; assay type: cell-based, human; details: for inhibition of angiotensin II-mediated cell proliferation: FIG. 5, 1.00 μM
Experimental: Tissue samples were placed into sterile calcium and magnesium-free HBSS containing penicillin (100 U/ml) and streptomycin (100 μg/ml) for transfer to the laboratory. Myometrial cells were isolated by collagenase digestion. Briefly, myometrium was finely chopped and incubated in HBSS containing 1 mg/ml collagenase IA, 20 mM Hepes, 100 U/L penicillin, 100 μg/ml streptomycin and 5 μg/ml fungizone at 37° C. until the cells were dispersed. Myometrial cells were obtained by centrifugation for 15 minutes at 400 g over 60% Percoll and the cells washed with HBSS. Myometrial cells were characterised by their ability to respond to oxytocin and staining for actin.
Cells were maintained in 175 cm^2 flasks in Dulbecco's modified Eagle's medium (DMEM) containing 10% (v/v) fetal calf serum (FCS), 1% L-glutamine,20 mM Hepes and 1% antibiotic-antimycotic mixture (10,000 U penicillin, 10 μg streptomycin, and 25 μg ml^-1 fungizone) at 37° C. in a humidified atmosphere of air/CO2 (19:1) until 95% confluent. Thereafter, the cells were trypsinised, washed and re-plated at a density of 10×10^3 cells per well in 24-well plates in 1 ml of DMEM with 10% FCS for the proliferation studies. After 24 hrs, the medium was removed and replaced with serum-free DMEM. After a further 24 hrs, the experiments were initiated on quiescent monolayers of myometrial cells. […] The corresponding medium was replaced every 24 hrs with fresh medium.
At defined time-points, the growth media was removed and the cells were washed with 1 ml of isotonic saline (0.9% sodium chloride), followed by the addition of 1 ml of 10 mM HEPES buffer containing 1.5 mM magnesium chloride, and 2 drops of Zap-oglobin (Coulter Electronics Ltd., Luton, Beds., UK) containing 2.5% acetic acid to each well. The 24-well plate was allowed to incubate at 37° C. for 10 min. After which, the suspended cells were pipetted up and down to disperse the cell clusters. The cell suspension was then added to 9 ml of counting solution containing 0.9% sodium chloride and 0.5% formalin in a Coulter counter container. […] The number of cells in each well was counted at the aperture size of 16 on the Coulter counter (Coulter Electronics Ltd., Luton, Beds U.K.). Three readings were taken for each well and a mean value of the three readings obtained. The mean (±SD) value of cell counts from the triplicate wells was calculated.
Myometrium cells were maintained in Dulbecco's modified Eagle's medium (MD) with 10% (v/v) FCS, containing 1% L-glutamine, 20 mM HEPES and 1% antibiotic-antimycotic mixture (10,000 U penicillin, 10 mg streptomycin) at 37° C. in a humidified atmosphere of air/CO2 (19:1) until 95% confluent. […] The cell growth was measured at day 4 and day 6 by counting cell numbers in a Coulter Counter. […]

[3] = tested on: non-AT1/non-AT2 angiotensin II recognition site; test: [125I]angiotensin II receptor autoradiography on myometrium/fibroid sections; assay type: binding, human; details: for displacement of [125I]angiotensin II from non-AT1/non-AT2 angiotensin II recognition site: FIG. 2, unlabeled ligand 0.1 nM, human non-pregnant myometrium and fibroid sections
Experimental: Frozen myometrium and fibroid tissues were surrounded in embedding medium (OCT compound, Miles Scientific) before 20 μm sections were cut using a cryostat (-15 to -1 9° C.) and thaw mounted onto gelatin-coated glass slides for receptor autoradiographic studies. Sections were stored (less than 2 week) desiccated at -80° C. until used.
Slide mounted human myometrial/fibroid sections were removed from storage and allowed approximately 30 min to equilibrate to room temperature. To reduce endogenous levels of angiotensin II in the tissue, the sections were preincubated for 60 min in incubation buffer (mM; sodium chloride, 150; sodium dihydrogen phosphate, 50; magnesium chloride, 10; ethyleneglycol-bis-(β-amino-ethyl ether)-N,N'-tetra-acetic acid, 5 and 0.4% w/v bovine serum albumin, pH 7.4) at 25° C. […] Immediately following incubation, the tissue sections were washed in ice-cold incubation buffer for 2 min and dipped (1 s) in ice-cold distilled water to remove buffer salts. The sections were rapidly dried in a stream of cold dry air and exposed to Hyperfilm-[^3 H]

myometrial cells [4] = test: Myometrial cell proliferation, cell counts in Coulter counter; assay type: cell-based, human; details: for cell count, 0 day (+/-SD) / cell count, 4 days (+/-SD) / cell count, 6 days (+/-SD): Table 1, in 1% FCS
Experimental: Tissue samples were placed into sterile calcium and magnesium-free HBSS containing penicillin (100 U/ml) and streptomycin (100 μg/ml) for transfer to the laboratory. Myometrial cells were isolated by collagenase digestion. Briefly, myometrium was finely chopped and incubated in HBSS containing 1 mg/ml collagenase IA, 20 mM Hepes, […], 100 μg/ml streptomycin and 5 μg/ml fungizone at 37° C. until the cells were dispersed. Myometrial cells were obtained by centrifugation for 15 minutes at 400 g over 60% Percoll and the cells washed with HBSS. Myometrial cells were characterised by their ability to respond to oxytocin and staining for actin.
Cells were maintained in 175 cm^2 flasks in Dulbecco's modified Eagle's medium (DMEM) containing 10% (v/v) fetal calf serum (FCS), 1% L-glutamine,20 mM Hepes and 1% antibiotic-antimycotic mixture (10,000 U penicillin, […], and 25 μg ml^-1 fungizone) at 37° C. in a humidified atmosphere of air/CO2 (19:1) until 95% confluent. Thereafter, the cells were trypsinised, washed and re-plated at a density of 10×10^3 cells per well in 24-well plates in 1 ml of DMEM with 10% FCS for the proliferation studies. After 24 hrs, the medium was removed and replaced with serum-free DMEM. After a further 24 hrs, the experiments were initiated on quiescent monolayers of myometrial cells. To the serum-starved myometrial cells was added either angiotensin II (0.1 μm or 1.0 μm) in the presence or absence of 1% FCS or bFGF (20 ng/ml) or FCS (1%) alone or DuP753 with or without angiotensin II (0.1 μM) and cell growth measured at day 4 and day 6 by counting cell numbers in a Coulter counter as described below. The corresponding medium was replaced every 24 hrs with fresh medium.
Calibration of the Coulter counter was achieved by counting the myometrium cell suspension at reduced aperture size ranging from 0 to 32. A calibration curve was constructed from the cell counts on the function of the aperture size, and the aperture size corresponding to the middle point of the plateau part of the calibration curve was used for the cell counting. The aperture size used for myometrium cell counting was 16.
At defined time-points, the growth media was removed and the cells were washed with 1 ml of isotonic saline (0.9% sodium chloride), followed by the addition of 1 ml of 10 mM HEPES buffer containing 1.5 mM magnesium chloride, and 2 drops of Zap-oglobin (Coulter Electronics Ltd., Luton, Beds., UK) containing 2.5% acetic acid to each well. The 24-well plate was allowed to incubate at 37° C. for 10 min. After which, the suspended cells were pipetted up and down to disperse the cell clusters. The cell suspension was then added to 9 ml of counting solution containing 0.9% sodium chloride and 0.5% formalin in a Coulter counter container. Each well was washed three times with the counting solution from the same container and effluent collected in the same container. The number of cells in each well was counted at the aperture size of 16 on the Coulter counter (Coulter Electronics Ltd., Luton, Beds U.K.). Three readings were taken for each well and a mean value of the three readings obtained. The mean (±SD) value of cell counts from the triplicate wells was calculated.
As discussed above, FIG. 3(A) illutrates the effect of angiotensin II on myometrial cell proliferation. Myometrium cells were maintained in Dulbecco's modified Eagle's medium (MD) with 10% (v/v) FCS, containing 1% L-glutamine, 20 mM HEPES and 1% antibiotic-antimycotic mixture (10,000 U penicillin, 10 mg streptomycin) at 37° C. in a humidified atmosphere of air/CO2 (19:1) until 95% confluent. For the proliferation studies, the cells were plated at a density of 10×10^3 cells per well in 24 well plates in 1 ml of DMEM with 10% FCS. After 24 hrs the medium was removed and replaced with serum-free DMEM. After a further 24 hrs, the experiment was initiated on quiescent monolayers of myometrial cells. […]

Question: With `C[C@H](CS)C(=O)N1CCC[C@H]1C(=O)O` [Captopril] as the compound, how does the “reduction of DNA synthesis, of control (0% FCS)” value (myometrial cells [1]) read?
Answer: ~50%

Question: Which results are given for `CCCCc1nc(Cl)c(CO)n1Cc1ccc(-c2ccccc2-c2nn[nH]n2)cc1` [DuP753]?
Answer: inhibition of the effects of angiotensin II on cell proliferation ([2]; FIG. 3(B), DuP753 1 μM, angiotensin II 0.1 μM, 1% FCS): inhibits; inhibition of angiotensin II-mediated cell proliferation [2]: significantly inhibited

Question: For `Cc1cc(Cn2cnc3c2CC(C(=O)O)N(C(=O)C(c2ccccc2)c2ccccc2)C3)ccc1N` (stereo not drawn) [PD123177], which “inhibition of angiotensin II-mediated cell proliferation” value [2] is on record?
Answer: significantly inhibited

Question: And the “inhibition of angiotensin II-mediated cell growth” value ([2]; preliminary data)?
Answer: inhibits

Question: Which “displacement of [125I]angiotensin II from non-AT1/non-AT2 angiotensin II recognition site” value [3] does the source give for Sar-Ala-angiotensin II here?
Answer: can selectively displace

Question: Which “displacement of [125I]angiotensin II from non-AT1/non-AT2 angiotensin II recognition site” value [3] does the source give for Sar-Thr-angiotensin II here?
Answer: can selectively displace

Question: Which “intensity of non-AT1/non-AT2 angiotensin II recognition site labelling in fibroid tissue” value ([3]; FIG. 1, cold angiotensin II (1 μM)) does the source give for “angiotensin II (DRVYIHPF; Angiotensin-2; UniProt P01019 25-32, looked up)” here?
Answer: only disappears

Question: And the “increase in myometrial cell proliferation compared to cells in culture medium devoid of angiotensin II” value (myometrial cells [4]; FIG. 3(A), 0.1 μM, after six days in culture)?
Answer: ~100%

Question: What about the “cell count, 0 day (+/-SD)” value (myometrial cells [4]) of the same compound?
Answer: 64.33 +/- 2.73

Question: And the “cell count, 4 days (+/-SD)” value (myometrial cells [4])?
Answer: 167.33 +/- 21.55

Question: And the “cell count, 6 days (+/-SD)” value (myometrial cells [4])?
Answer: 333.67 +/- 7.51

Question: How did the “cell count, 0 day (+/-SD)” value (myometrial cells [4]) turn out when “bFGF: Basic fibroblast growth factor, classic growth factor, from RD Systems” was run?
Answer: 63.90 +/- 1.88

Question: What about the “cell count, 4 days (+/-SD)” value (myometrial cells [4]) of the same compound?
Answer: 167.33 +/- 25.11

Question: And the “cell count, 6 days (+/-SD)” value (myometrial cells [4])?
Answer: 307.33 +/- 49.69
